Reference: patent publication US12453722B2, “Maleate of nicotinyl alcohol ether derivative, crystal form thereof, and application thereof” (INSTITUTE OF MATERIA MEDICA, CHINESE ACADEMY OF MEDICAL …, priority 2019, dated 2025)
“And” between values parts separate entries of the source, which are not always exact repeats. Equal entries are not always repeated. Marks after values point to notes of the source that are not given here. Each block holds one molecule with its values, some of them ahead of it.

Legend:
mouse melanoma B16F10 = assay: In vivo antitumor effect, subcutaneous transplanted tumor model of mouse melanoma B16F10; details: for TGI %: B16F10, TGI=(1-T/C)×100 by tumor weight
Procedure: The in vivo antitumor effects of the compound of Example 1 and the compound of Example 2 as PD-L1 inhibitors on mouse melanoma B16F10 were evaluated on the subcutaneous transplanted tumor model of mice.
(§1) Experimental steps: the subcultured B16F10 tumor strain was ground with a homogenizer, washed twice with sterile normal saline and counted, and the cell concentration of tumor cell suspension was adjusted with normal saline to 9×10^6/ml. 0.2 ml of the cell suspension was inoculated into the right armpit of C57BL/6J mice and the day was recorded as day 0. The next day after inoculation, the animals were randomly divided into groups, weighed and administered. The mice in the solvent control group were administrated with 0.5% CMC orally every day. […] The compounds to be tested were administered orally once a day. The animals were weighed and killed during treatment. The tumor tissues were stripped, weighed and photographed. Finally, the tumor inhibition rates were calculated to evaluate the intensity of antitumor effect.
(§2) Calculation and statistical method: tumor proliferation inhibition rate TGI (%): TGI=(1-T/C)×100. (T: tumor weight in the treatment group; C: tumor weight in the negative control group). Statistical method: Graphpad was used for data statistical analysis, and One-way ANOVA test was used, * P<0.05, * * P<0.01, * * * P<0.001.

[1] = test system: human lung cancer NCI-H460; assay: In vivo antitumor effect, human lung cancer NCI-H460 model in NSG mice reconstructed by human immune system; details: for Tumor volume X ± SD, Day 1 / Tumor volume X ± SD, Day 20 / Tumor weight (g) X ± SD: NCI-H460, NSG mice with human PBMCs; for TGI %: NCI-H460, TGI=(1-T/C)×100 by tumor weight
Procedure: The in vivo antitumor effects of the compound of Example 1 and the compound of Example 2 as PD-L1 inhibitors were evaluated on the NCI-H460 model of human lung cancer in NSG tumor-bearing mice reconstructed by human immune system. […]
Experimental steps: PBMCs were obtained by isolation of fresh human leukocytes, then inoculated into NSG mice through caudal vein, and each mouse was inoculated with 1×10^7. On the third day. NCI-H460 tumor cells were inoculated into the armpit of mice, and each mouse was inoculated with 1×10^6. After the tumors grew to 100˜300 mm^3, the mice were administered in groups. The mice in the solvent control group were administrated with 0.5% CMC orally every day. […] The compounds to be tested were administered orally once a day. The animals were weighed and killed during treatment. The tumor tissues were stripped, weighed and photographed. Finally, the tumor inhibition rates were calculated to evaluate the intensity of antitumor effect.
as §2, with “group:” for “group;”

mouse colon cancer MC38 = assay: In vivo antitumor effect, subcutaneous transplanted tumor model of mouse colon cancer MC38; details: for Body weight (g) X ± SD, End / Body weight (g) X ± SD, Start / Tumor weight (g) X ± SD: MC38, C57BL/6J mice; for TGI %: MC38, TGI=(1-T/C)×100 by tumor weight
Procedure: The in vivo antitumor effects of the compound of Example 1 and the compound of Example 2 as PD-L1 inhibitors on mouse colon cancer MC38 were evaluated on the subcutaneous transplanted tumor model of mice.
as §1, with “MC38” for “B16F10”, “9×10^6/ml,” for “9×10^6/ml.”
as §2, with “group:” for “group;”

[2] = Influencing factor test (stability at high temperature, high humidity, illumination); format: physicochemical
Procedure: When the temperature rose to the top of DSC endothermic peak (about 175° C.), the weight loss was obvious, which was the weight loss caused by the melting decomposition of the sample. The DSC endothermic peak was the decomposition point of the compound of Example 2. 4.
• (1) Physical and chemical properties • Appearance: white solid • Melting point: 174.68° C.
The compound of Example 2 was stable under the conditions of illumination, high temperature and high humidity.

[3] = log P (physical and chemical properties); format: physicochemical
[4] = test system: pleural mesothelioma (PM); details: 25 patients with pleural mesothelioma (PM); cited from earlier work
[5] = 80 × 1 mg/kg, intraperitoneal, B16F10, C57BL/6J mice, 1 mg/kg
[6] = 5 × 14 mg/kg, oral once a day, B16F10, C57BL/6J mice
[7] = 10 × 14 mg/kg, oral once a day, B16F10, C57BL/6J mice
[8] = 2.5 × 14 mg/kg, oral once a day

Molecule: O=P1(N(CCCl)CCCl)NCCCO1 (stereo not drawn) [CTX, cyclophosphamide]
Body weight (g) X ± SD, End (mouse melanoma B16F10; [5]): 19.2 ± 0.8 g and 17.5 ± 0.9 g | Body weight (g) X ± SD, Start (mouse melanoma B16F10; [5]): 16.94 ± 0.43 g and 16.9 ± 0.8 g | TGI % (mouse melanoma B16F10; 80 × 1 mg/kg, intraperitoneal, 1 mg/kg): 90% and 70% | Tumor volume X ± SD, Day 1 ([1]; 100 × 1 mg/kg, intraperitoneal): 165.4 ± 22.4 | Tumor volume X ± SD, Day 20 ([1]; 100 × 1 mg/kg, intraperitoneal): 556.5 ± 81.1 | Tumor weight (g) X ± SD ([1]; 100 × 1 mg/kg, intraperitoneal): 0.90 ± 0.15*** g | TGI % ([1]; 100 × 1 mg/kg, intraperitoneal): 66.9% | Body weight (g) X ± SD, End (mouse colon cancer MC38; 40 × 1 mg/kg, intraperitoneal): 21.7 ± 1.4 g | Body weight (g) X ± SD, Start (mouse colon cancer MC38; 40 × 1 mg/kg, intraperitoneal): 18.8 ± 0.9 g | Tumor weight (g) X ± SD (mouse colon cancer MC38; 40 × 1 mg/kg, intraperitoneal): 1.30 ± 1.44** g | TGI % (mouse colon cancer MC38; 40 × 1 mg/kg, intraperitoneal): 67% | Body weight (g) X ± SD, End (mouse colon cancer MC38; 40 × 2 mg/kg, intraperitoneal): 24.5 ± 0.9 g | Body weight (g) X ± SD, Start (mouse colon cancer MC38; 40 × 2 mg/kg, intraperitoneal): 22.0 ± 0.8 g | Tumor weight (g) X ± SD (mouse colon cancer MC38; 40 × 2 mg/kg, intraperitoneal): 0.17 ± 0.10** g | TGI % (mouse colon cancer MC38; 40 × 2 mg/kg, intraperitoneal): 90%

Appearance ([2]; 60° C., 5 days): off white powder | Melting point (DSC method, ° C.) ([2]; 60° C., 5 days): 118.69 °C | Purity (%) ([2]; 60° C., 5 days): 99.5% | Related substances (%) ([2]; 60° C., 5 days): 0.5% | Appearance ([2]; Illumination, 5 days): transparent bulk | Purity (%) ([2]; Illumination, 5 days): 96.0% | Related substances (%) ([2]; Illumination, 5 days): 4.0% | Stability under illumination conditions ([2]; Illumination, 5 days): unstable | Appearance ([2]; Initial): off white powder | Melting point (DSC method, ° C.) ([2]; Initial): 119.36 °C | Purity (%) ([2]; Initial): 99.5% | Related substances (%) ([2]; Initial): 0.5% | Purity (%) ([2]; RH 92.5%, 5 days): 99.5% | Appearance ([2]; RH 92.5%, 5 days, hydrochloride): colorless viscous liquid | Moisture absorption ([2]; high humidity of RH92.5%, 5 days): serious moisture absorption | Stability under high temperature conditions ([2]; high temperature of 60° C., 5 days): stable | logP [3]: 2.4
Molecule: CC(C)OC(=O)[C@H](CO)NCc1cc(Cl)c(OCc2cccc(-c3ccccc3)c2Br)cc1OCc1cccnc1.Cl.Cl [Example 1, isopropyl (S)-N-[2-(pyridine-3-yl-methoxy)-4-(2-bromo-3-(phenyl)benzyloxy)-5-chlorobenzyl] serinate hydrochloride]
Tumor weight (g) X ± SD (mouse melanoma B16F10; [6]): 3.11 ± 0.98* g | TGI % (mouse melanoma B16F10; 5 × 14 mg/kg, oral once a day): 11% | Tumor weight (g) X ± SD (mouse melanoma B16F10; [7]): 3.04 ± 0.94** g | TGI % (mouse melanoma B16F10; 10 × 14 mg/kg, oral once a day): 13% | Tumor volume X ± SD, Day 1 ([1]; 15 × 14 mg/kg, oral once a day): 161.9 ± 21.0 | Tumor volume X ± SD, Day 20 ([1]; 15 × 14 mg/kg, oral once a day): 1441.4 ± 337.6 | Tumor weight (g) X ± SD ([1]; 15 × 14 mg/kg, oral once a day): 2.06 ± 0.22 g | TGI % ([1]; 15 × 14 mg/kg, oral once a day): 24.7% | Tumor weight (g) X ± SD (mouse colon cancer MC38; 5 × 14 mg/kg, oral once a day): 3.21 ± 0.28*** g | TGI % (mouse colon cancer MC38; 5 × 14 mg/kg, oral once a day): 18% | Tumor weight (g) X ± SD (mouse colon cancer MC38; 10 × 14 mg/kg, oral once a day): 2.86 ± 1.36** g | TGI % (mouse colon cancer MC38; 10 × 14 mg/kg, oral once a day): 27%

Appearance ([2]; 60° C., 10 days): white | Chiral impurities (%) ([2]; 60° C., 10 days): 0.2% | Melting point (DSC method, ° C.) ([2]; 60° C., 10 days): 174.64 °C | Purity (%) ([2]; 60° C., 10 days): 98.7% | Related substances (%) ([2]; 60° C., 10 days): 1.3% | Appearance ([2]; Illumination, 10 days): white | Chiral impurities (%) ([2]; Illumination, 10 days): 0.2% | Melting point (DSC method, ° C.) ([2]; Illumination, 10 days): 174.60 °C | Purity (%) ([2]; Illumination, 10 days): 98.6% | Related substances (%) ([2]; Illumination, 10 days): 1.4% | Appearance ([2]; Initial): white | Chiral impurities (%) ([2]; Initial): 0.2% | Melting point (DSC method, ° C.) ([2]; Initial): 174.68 °C | Purity (%) ([2]; Initial): 98.7% | Related substances (%) ([2]; Initial): 1.3% | Appearance ([2]; RH 92.5%, 10 days): white | Chiral impurities (%) ([2]; RH 92.5%, 10 days): 0.2% | Melting point (DSC method, ° C.) ([2]; RH 92.5%, 10 days): 174.57 °C | Purity (%) ([2]; RH 92.5%, 10 days): 98.7% | Related substances (%) ([2]; RH 92.5%, 10 days): 1.3% | Stability under illumination, high temperature and high humidity ([2]; illumination, 60° C., RH 92.5%, 10 days): stable | log P [3]: 3.2
Molecule: CC(C)OC(=O)[C@H](CO)NCc1cc(Cl)c(OCc2cccc(-c3ccccc3)c2Br)cc1OCc1cccnc1.O=C(O)/C=C\C(=O)O [Example 2, isopropyl (S)-N-(2-(pyridine-3-yl-methoxy)-4-(2-bromo-3-phenylbenzyloxy)-5-chlorobenzyl) serinate maleate]
Tumor weight (g) X ± SD (mouse melanoma B16F10; [6]): 1.39 ± 0.84* g | TGI % (mouse melanoma B16F10; 5 × 14 mg/kg, oral once a day): 40% | Tumor weight (g) X ± SD (mouse melanoma B16F10; [7]): 1.04 ± 0.66** g | TGI % (mouse melanoma B16F10; 10 × 14 mg/kg, oral once a day): 55% | Comparison of tumor inhibition rate at the same dosage (mouse melanoma B16F10; Tumor model B16F10): Compound of the Example 2 (maleate) > Compound | Tumor volume X ± SD, Day 1 ([1]; 15 × 14 mg/kg, oral once a day): 166.5 ± 24.5 | Tumor volume X ± SD, Day 20 ([1]; 15 × 14 mg/kg, oral once a day): 1405.2 ± 442.9 | TGI % ([1]; 15 × 14 mg/kg, oral once a day): 30.6% | Comparison of tumor inhibition rate at the same dosage ([1]; Tumor model NSG NCI-H460): Compound of the Example 2 (maleate) > Compound | Tumor weight (g) X ± SD (mouse colon cancer MC38; [8]): 1.13 ± 0.78 g | TGI % (mouse colon cancer MC38; [8]): 34% | Tumor weight (g) X ± SD (mouse colon cancer MC38; 5 × 14 mg/kg, oral once a day): 0.42 ± 0.39*** g | TGI % (mouse colon cancer MC38; 5 × 14 mg/kg, oral once a day): 75% | Tumor weight (g) X ± SD (mouse colon cancer MC38; 10 × 14 mg/kg, oral once a day): 0.73 ± 0.54** g | TGI % (mouse colon cancer MC38; 10 × 14 mg/kg, oral once a day): 57% | Comparison of tumor inhibition rate at the same dosage (mouse colon cancer MC38; Tumor model MC38): Compound of the Example 2 (maleate) > Compound

Molecule: Keytruda: first FDA approved PD-1 monoclonal antibody, from Merck
disease control rate [4]: 76% | overall response rate (ORR) [4]: 28%
